{"source": "patent US12509714B2", "about": "“Multiple heteroresistance to guide combination antibiotic regimens” (priority 2018, dated 2025)", "key": {"[1]": {"tested_on": "Enterobacter cloacae isolate Mu208", "assay_type": "cell-based", "conditions": "for resistance status of Mu208 by PAP: Mueller Hinton agar, 0-4 times the breakpoint", "protocol": "(§1) Population analysis profile. Population analysis profiles (PAPs) were conducted. Briefly, solid agar plates were made for each antibiotic at 7 concentrations containing 0, 0.125, 0.25, 0.5, 1, 2 and 4 times the breakpoint, using Mueller Hinton agar. Breakpoint concentrations for Enterobacteriaceae from CLSI (amikacin 64 ug/mL, gentamicin 16 ug/mL, tobramycin 16 ug/mL, ampicillin 32 ug/mL, aztreonam 16 ug/mL, cefazolin 32 ug/mL, cefepime 16 ug/mL, ceftazidime 16 ug/mL, meropenem 4 ug/mL, piperacillin/tazobactam 128/4 ug/mL, ciprofloxacin 1 ug/mL, fosfomycin 256 ug/mL (breakpoint for UPEC; 25 mg/L glucose-6-phosphate added to the media), tetracycline 16 ug/mL, trimethoprim/sulfamethoxazole 4/76 ug/mL), FDA (tigecycline 8 ug/mL), or EUCAST (colistin 4 ug/mL) were used. Dual PAPs were made similarly, with both drugs in each plate at the same multiple of their respective breakpoint (0, 0.125, 0.25, 0.5, 1, 2, 4 times the breakpoint). Isolates to be tested were grown up overnight in Mueller Hinton broth from a single colony isolated from a frozen stock. Serial microdilutions were plated at each concentration of antibiotic. Colonies were enumerated after overnight growth at 37° C. An isolate was classified as resistant if the number of colonies that grew at the breakpoint concentration were at least 50% of those that grew on antibiotic free plates. If an isolate was not resistant, it was classified as heteroresistant if the number of colonies that grew at 2 or 4 times the breakpoint were at least 0.0001% (1 in 10^6) of those that grew on antibiotic free plates. If isolates were neither classified as resistant or heteroresistant, they were classified as susceptible."}, "[2]": {"tested_on": "Enterobacter cloacae isolate Mu208", "assay_type": "cell-based", "conditions": "for initial reduction in bacterial levels: ceftazidime 128, ampicillin 128 μg/mL", "protocol": "(§2) Time kills. Time kills were conducted. Briefly, 10^6 CFU/mL bacteria from an overnight culture were inoculated into 2 mL MH media in culture tubes (Globe Scientific) with and without antibiotic(s). The following concentrations were used: colistin 16 μg/mL, ceftazidime 128 μg/mL, fosfomycin 256 μg/mL (+25 mg/L Glucose-6-Phosphate (G6P)), ampicillin 128 μg/mL (FIG. 1e-h and Supplementary FIG. 2), fosfomycin 256 μg/mL (+25 mg/L G6P), trimethoprim 4 μg/mL sulfamethoxazole 76 μg/mL, amikacin 64 μg/mL, and piperacillin 256 μg/mL tazobactam 4 μg/mL (FIGS. 5C, D, G, H). Cultures were incubated at 37° C. shaking at 250 RPM for 1-48 hours. CFU were determined by serial diluting bacteria in PBS prior to plating on MH agar plates at various timepoints in the assay (0, 1, 2, 4, 6, 8, 10, 24, and 48 hour timepoints were used for time-kills). In FIG. 1E-H, serially diluted bacteria were also plated on MH agar plates with antibiotic added (colistin 16 μg/mL, ceftazidime128 μg/mL, fosfomycin 256 μg/mL(+25 mg/L G6P), and ampicillin 128 μg/mL). In FIGS. 5D, H culture tubes were imaged with a Canon EOS Rebel T3i."}, "[3]": {"tested_on": "Enterobacter cloacae isolate Mu208", "assay": "Frequency of resistant subpopulations of Mu208 on antibiotic treatment and after subculture without antibiotic", "assay_type": "cell-based", "conditions": "for frequency of resistant subpopulation upon subculture in the absence of antibiotic: antibiotic-free subculture; for frequency of the respective resistant subpopulation on treatment: in the presence of the antibiotic"}, "Mu208 ΔphoQ": {"tested_on": "Mu208 ΔphoQ", "assay": "Resistant subpopulations in the Mu208 phoQ deletion mutant", "assay_type": "cell-based, Enterobacter cloacae", "conditions": "compared with parental Mu208", "excerpt": "Colistin heteroresistance in Enterobacter requires the two-component system histidine kinase PhoQ which we deleted from Mu208 to test whether colistin heteroresistance was linked to ceftazidime or fosfomycin heteroresistance.\nCloning and mutagenesis. Mu208 ΔphoQ was generated by lambda red recombination. Briefly, a kanamycin cassette flanked by FRT sites with homology to the regions directly upstream and downstream, respectively, of the phoQ open reading frame (ORF) was inserted into the phoQ ORF in Mu208 with pKD46-tet, prior to it being removed with a flp recombinase encoded on the temperature sensitive plasmid, PCP20."}, "Mu1176": {"tested_on": "Mu1176", "assay": "Control isolate Mu1176, resistance designation", "assay_type": "cell-based", "excerpt": "(§3) Bacterial isolates. Enterobacter cloacae isolate Mu208 was isolated from a urine sample at an Atlanta area hospital. […] Carbapenem-resistant Enterobacteriaceae (CRE) were collected between 2013 and 2015 by the Georgia EIP MuGSI. The CDC for provided pan-resistant Klebsiella pneumoniae isolates AR0040 and Nevada-2016."}, "Mu819": {"tested_on": "Mu819", "assay": "Susceptible control isolate Mu819 (designation, PAP, time kill)", "assay_type": "cell-based", "protocol": "as §3, §1\nas §2, with “Cultures were incubated at 37° C. shaking at 250 RPM for 1-48 hours.” left out, “In FIG. 1E-H, serially diluted bacteria were also plated on MH agar plates with antibiotic added (colistin 16 μg/mL, ceftazidime128 μg/mL, fosfomycin 256 μg/mL(+25 mg/L G6P), and ampicillin 128 μg/mL). In FIGS. 5D, H culture tubes were imaged with a Canon EOS Rebel T3i.” left out"}, "Mu712": {"tested_on": "Mu712", "excerpt": "as §3"}, "[4]": {"tested_on": "pan-resistant Klebsiella pneumoniae isolate Nevada-2016", "assay_type": "cell-based", "protocol": "as §1"}, "[5]": {"tested_on": "pan-resistant Klebsiella pneumoniae isolate AR0040", "assay_type": "cell-based", "conditions": "amikacin 64 μg/mL; piperacillin 256 μg/mL tazobactam 4 μg/mL", "protocol": "as §2"}, "[6]": {"tested_on": "pan-resistant Klebsiella pneumoniae isolate Nevada-2016", "assay_type": "cell-based", "conditions": "breakpoint concentration", "protocol": "as §2"}, "[7]": {"tested_on": "carbapenem-resistant Enterobacteriaceae (CRE) clinical isolates", "assay": "PAP screen of 104 CRE clinical isolates for heteroresistance to 16 antibiotics", "assay_type": "cell-based", "conditions": "104 CRE isolates", "protocol": "as §1, with “If an isolate was not resistant, it was classified as heteroresistant if the number of colonies that grew at 2 or 4 times the breakpoint were at least 0.0001% (1 in 10^6) of those that grew on antibiotic free plates. If isolates were neither classified as resistant or heteroresistant, they were classified as susceptible.” left out"}, "Mu661": {"tested_on": "Mu661", "assay": "Control isolate Mu661, resistance designation", "assay_type": "cell-based", "excerpt": "as §3"}, "[8]": {"conditions": "colistin 16, ceftazidime 128, fosfomycin 256 μg/mL"}}, "note": "Entries after “also recorded” stand apart in the source; their conditions may differ. Like-named read-outs stand apart in the source and are kept apart here.", "data": [{"compound": "colistin", "values": [{"measurement": "resistance status of Mu208 by PAP", "setting": "[1]", "result": "heteroresistance"}, {"measurement": "MIC of resistant subpopulation relative to the susceptible cells in the population", "setting": "[1]; PAP", "result": "at least 32 fold"}, {"measurement": "Mu208 cells killed by a concentration below the clinical breakpoint", "setting": "[1]; PAP", "result": "Roughly 4 logs"}, {"measurement": "concentration at which the resistant subpopulation survived", "setting": "[1]; PAP", "result": 4, "unit": "fold the breakpoint"}, {"measurement": "activity in combination with ampicillin", "setting": "[1]; dual PAP with ampicillin", "result": "not enhanced"}, {"measurement": "behaviour of resistant subpopulation / outgrowth in the presence of the single antibiotic", "setting": "[2]; [8]", "result": "expanded exponentially"}, {"measurement": "behaviour of resistant subpopulation / outgrowth in the presence of the single antibiotic", "setting": "[2]; colistin 16, ceftazidime 128, fosfomycin 256 μg/mL, listed as Colistin", "result": "unable to prevent subsequent outgrowth"}, {"measurement": "time within which the susceptible cells were killed", "setting": "[2]; single antibiotic, colistin 16 μg/mL", "result": "one"}, {"measurement": "activity in combination with ampicillin", "setting": "[2]; time-kill with ampicillin", "result": "not enhanced"}, {"measurement": "frequency of resistant subpopulation upon subculture in the absence of antibiotic", "setting": "[3]", "result": "returned to the baseline levels"}, {"measurement": "frequency of the respective resistant subpopulation on treatment", "setting": "[3]", "result": "robust increase"}, {"measurement": "resistant subpopulation in the phoQ mutant", "setting": "Mu208 ΔphoQ", "result": "absent"}, {"measurement": "resistance designation of control isolate Mu1176", "setting": "Mu1176", "result": "resistant"}, {"measurement": "resistance designation of control isolate Mu819", "setting": "Mu819", "result": "susceptible"}, {"measurement": "killing of representative susceptible isolate in PAP", "setting": "Mu819; concentration below the breakpoint, isolate not named at b160, Mu819", "result": "all the cells of a representative susceptible isolate were killed"}, {"measurement": "outcome of treatment of a susceptible strain in time kill", "setting": "Mu819; strain not named at b162, Mu819", "result": "eradicated"}]}, {"compound": "CC(C)(O/N=C(\\C(=O)N[C@@H]1C(=O)N2C(C(=O)[O-])=C(C[n+]3ccccc3)CS[C@H]12)c1csc(N)n1)C(=O)O", "note": "[ceftazidime]", "values": [{"measurement": "activity in combination with ampicillin", "setting": "[1]", "result": "not enhanced"}, {"measurement": "concentration at which the resistant subpopulation survived", "setting": "[1]", "result": 4, "unit": "fold the breakpoint"}, {"measurement": "resistance status of Mu208 by PAP", "setting": "[1]", "result": "heteroresistance"}, {"measurement": "activity in combination with ampicillin", "setting": "[2]", "result": "not enhanced"}, {"measurement": "behaviour of resistant subpopulation / outgrowth in the presence of the single antibiotic", "setting": "[2]", "result": "rapidly increased in number; also recorded: unable to prevent subsequent outgrowth"}, {"measurement": "initial reduction in bacterial levels", "setting": "[2]; single antibiotic", "result": "killing was delayed"}, {"measurement": "frequency of resistant subpopulation upon subculture in the absence of antibiotic", "setting": "[3]", "result": "returned to the baseline levels"}, {"measurement": "frequency of the respective resistant subpopulation on treatment", "setting": "[3]", "result": "robust increase"}, {"measurement": "resistance designation of control isolate Mu1176", "setting": "Mu1176", "result": "resistant"}, {"measurement": "resistance designation of control isolate Mu712", "setting": "Mu712", "result": "susceptible"}]}, {"compound": "NCC[C@H](O)C(=O)N[C@@H]1C[C@H](N)[C@@H](O[C@H]2O[C@H](CN)[C@@H](O)[C@H](O)[C@H]2O)[C@H](O)[C@H]1O[C@H]1O[C@H](CO)[C@@H](O)[C@H](N)[C@H]1O", "note": "[amikacin]", "values": [{"measurement": "resistance status of Nevada-2016 by PAP", "setting": "[4]", "result": "homogenous resistance"}, {"measurement": "initial killing of AR0040 by single drug", "setting": "[5]", "result": "significant initial killing"}]}, {"compound": "C[C@@H]1O[C@@H]1P(=O)(O)O", "note": "[fosfomycin]", "values": [{"measurement": "activity in combination with ampicillin", "setting": "[1]", "result": "not enhanced"}, {"measurement": "resistance status of Mu208 by PAP", "setting": "[1]", "result": "heteroresistance"}, {"measurement": "concentration at which the resistant subpopulation survived", "setting": "[1]; PAP", "result": 4, "unit": "fold the breakpoint"}, {"measurement": "activity in combination with ampicillin", "setting": "[2]", "result": "not enhanced"}, {"measurement": "behaviour of resistant subpopulation / outgrowth in the presence of the single antibiotic", "setting": "[2]; [8]", "result": "rapidly increased in number; also recorded: unable to prevent subsequent outgrowth"}, {"measurement": "killing of Nevada-2016 by single antibiotic", "setting": "[6]", "result": "killing of a significant proportion of the bacteria"}, {"measurement": "frequency of resistant subpopulation upon subculture in the absence of antibiotic", "setting": "[3]", "result": "returned to the baseline levels"}, {"measurement": "frequency of the respective resistant subpopulation on treatment", "setting": "[3]", "result": "robust increase"}, {"measurement": "proportion of the isolates exhibiting heteroresistance", "setting": "[7]", "result": 72.1, "unit": "%"}, {"measurement": "resistance designation of control isolate Mu1176", "setting": "Mu1176", "result": "resistant"}, {"measurement": "resistance designation of control isolate Mu819", "setting": "Mu819", "result": "susceptible"}]}, {"compound": "CC1(C)S[C@@H]2[C@H](NC(=O)[C@H](N)c3ccccc3)C(=O)N2[C@H]1C(=O)O", "note": "[ampicillin]", "values": [{"measurement": "resistance status of Mu208 by PAP", "setting": "[1]", "result": "homogenous resistance"}, {"measurement": "killing of cells in PAP", "setting": "[1]; any of the concentrations tested", "result": "lack of significant killing"}, {"measurement": "initial reduction in bacterial levels", "setting": "[2]; single antibiotic", "result": "did not lead to the initial reduction in bacterial levels"}, {"measurement": "frequency of the respective resistant subpopulation on treatment", "setting": "[3]", "result": "constant"}, {"measurement": "proportion of the isolates exhibiting heteroresistance", "setting": "[7]", "result": 1.0, "unit": "%"}, {"measurement": "resistance designation of control isolate Mu1176", "setting": "Mu1176", "result": "resistant"}, {"measurement": "resistance designation of control isolate Mu661", "setting": "Mu661", "result": "susceptible"}]}]}
